According to US12612360B2 (Sanofi, priority 2020, dated 2026):

Target: T1, ERα (Homo sapiens, UniProt P03372)
T1 construct: host or cells: MCF7
T1 sequence (P03372 1-595): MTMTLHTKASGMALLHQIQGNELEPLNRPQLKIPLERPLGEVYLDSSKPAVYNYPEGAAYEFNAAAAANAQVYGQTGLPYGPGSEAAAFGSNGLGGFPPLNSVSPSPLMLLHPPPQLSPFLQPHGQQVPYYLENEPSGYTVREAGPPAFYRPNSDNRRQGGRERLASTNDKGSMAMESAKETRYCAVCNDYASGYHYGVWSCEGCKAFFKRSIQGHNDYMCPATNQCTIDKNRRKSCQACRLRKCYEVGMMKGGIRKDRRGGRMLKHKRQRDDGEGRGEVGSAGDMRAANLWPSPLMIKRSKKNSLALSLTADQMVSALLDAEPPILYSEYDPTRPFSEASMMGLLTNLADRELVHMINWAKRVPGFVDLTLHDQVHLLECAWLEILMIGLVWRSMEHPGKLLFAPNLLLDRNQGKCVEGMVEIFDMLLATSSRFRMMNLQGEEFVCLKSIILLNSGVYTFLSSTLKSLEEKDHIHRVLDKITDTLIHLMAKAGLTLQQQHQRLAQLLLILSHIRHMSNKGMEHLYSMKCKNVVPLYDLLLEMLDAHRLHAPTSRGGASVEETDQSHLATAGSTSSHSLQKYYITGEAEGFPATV
Assay: Estrogen receptor degradation activity: breast cancer cell ERα in cell western assay (MCF7 cells)
Format: cell-based
Conditions: for % Degradation At 0.3 μM: 4 hours, relative to fulvestrant 0.1 μM positive control; for DC50: 4 hours post compound addition, concentration which degrades 50% of the estrogen receptor, read-out: Degradation IC50
Procedure, shortened: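 In-cell western readout: ERα immunofluorescence (Alexa 488) normalised to DNA signal (Syto-64) after formalin fixation. Compounds dosed for 4 h on MCF7 cells in stripped-serum, phenol-red-free medium over nine 1:5 steps, 0.3 to […] final; fulvestrant 0.1 μM control. IC50 in nM for 50% ERα degradation.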

## O=C(O)c1ccc2c(c1)CCCC(c1ccc(C(F)(F)F)cc1Cl)=C2c1ccc(C=C2CN(CCCF)C2)cc1 [Example 50, 8-(2-chloro-4-(trifluoromethyl)phenyl)-9-(4-((1-(3-fluoropropyl)azetidin-3-ylidene)methyl)phenyl)-6,7-dihydro-5H-benzo[7]annulene-3-carboxylic acid]
  % Degradation At 0.3 μM: 93%
  DC50: 0.1 nM

## Cc1cc(C(F)(F)F)ccc1C1=C(c2ccc(C=C3CN(CCCF)C3)cc2)c2ccc(C(=O)O)cc2CCC1 [Example 3, 9-(4-((1-(3-fluoropropyl)azetidin-3-ylidene)methyl)phenyl)-8-(2-methyl-4-(trifluoromethyl)phenyl)-6,7-dihydro-5H-benzo[7]annulene-3-carboxylic acid]
  % Degradation At 0.3 μM: 90%
  DC50: 0.3 nM

## O=C(O)c1ccc2c(c1)CCCC(c1ccc(F)cc1C(F)(F)F)=C2c1ccc(C=C2CN(CCC(F)(F)F)C2)cc1 [Example 108, 8-(4-fluoro-2-(trifluoromethyl)phenyl)-9-(4-((1-(3,3,3-trifluoropropyl)azetidin-3-ylidene)methyl)phenyl)-6,7-dihydro-5H-benzo[7]annulene-3-carboxylic acid]
  % Degradation At 0.3 μM: 92%
  DC50: 1.2 nM

## O=C(O)c1ccc2c(c1)CCCC(c1cccc3c1CCCC3)=C2c1ccc(C=C2CN(CCCF)C2)cc1 [Example 177, 9-(4-((1-(3-fluoropropyl)azetidin-3-ylidene)methyl)phenyl)-8-(5,6,7,8-tetrahydronaphthalen-1-yl)-6,7-dihydro-5H-benzo[7]annulene-3-carboxylic acid]
  % Degradation At 0.3 μM: 92%
  DC50: 1 nM

## O=C(O)c1ccc2c(c1)CCCC(c1ccc(F)cc1C(F)(F)F)=C2c1ccc(C=C2CN(CCC(F)F)C2)cc1 [Example 25, 9-(4-((1-(3,3-difluoropropyl)azetidin-3-ylidene)methyl)phenyl)-8-(4-fluoro-2-(trifluoromethyl)phenyl)-6,7-dihydro-5H-benzo[7]annulene-3-carboxylic acid]
  % Degradation At 0.3 μM: 92%
  DC50: 0.5 nM

## O=C(O)c1ccc2c(c1)CCCC(c1cccc(C(F)(F)F)c1Cl)=C2c1ccc(C=C2CN(CCCF)C2)cc1 [Example 147, 8-(2-chloro-3-(trifluoromethyl)phenyl)-9-(4-((1-(3-fluoropropyl)azetidin-3-ylidene)methyl)phenyl)-6,7-dihydro-5H-benzo[7]annulene-3-carboxylic acid]
  % Degradation At 0.3 μM: 90%
  DC50: 0.3 nM

## Cc1cc(C2CC2)ccc1C1=C(c2ccc(C=C3CN(CCCF)C3)cc2)c2ccc(C(=O)O)cc2CCC1 [Example 39, 8-(4-cyclopropyl-2-methylphenyl)-9-(4-((1-(3-fluoropropyl)azetidin-3-ylidene)methyl)phenyl)-6,7-dihydro-5H-benzo[7]annulene-3-carboxylic acid]
  % Degradation At 0.3 μM: 87%
  DC50: 0.2 nM

## O=C(O)c1ccc2c(c1)CCCC(c1ccc(F)c(C(F)(F)F)c1)=C2c1ccc(C=C2CN(CCCF)C2)cc1 [Example 154, 8-(4-fluoro-3-(trifluoromethyl)phenyl)-9-(4-((1-(3-fluoropropyl)azetidin-3-ylidene)methyl)phenyl)-6,7-dihydro-5H-benzo[7]annulene-3-carboxylic acid]
  % Degradation At 0.3 μM: 92%
  DC50: 0.4 nM

## CC1(C)CCCC(C2=C(c3ncc(C=C4CN(CCCF)C4)cc3F)c3ccc(C(=O)O)cc3CCC2)C1 (racemic) [Example 186, 8-(3,3-Dimethylcyclohexyl)-9-(3-fluoro-5-((1-(3-fluoropropyl)azetidin-3-ylidene)methyl)pyridin-2-yl)-6,7-dihydro-5H-benzo[7]annulene-3-carboxylic acid, racemic mixture]
  % Degradation At 0.3 μM: 92%
  DC50: 1 nM

## Cc1cc(F)ccc1C1=C(c2cc(F)c(C=C3CN(CCCF)C3)c(F)c2)c2ccc(C(=O)O)cc2CCC1 [Example 36, 9-(3,5-difluoro-4-((1-(3-fluoropropyl)azetidin-3-ylidene)methyl)phenyl)-8-(4-fluoro-2-methylphenyl)-6,7-dihydro-5H-benzo[7]annulene-3-carboxylic acid]
  % Degradation At 0.3 μM: 89%
  DC50: 0.4 nM

## O=C(O)c1ccc2c(c1)CCCC(c1cc(F)ccc1C(F)(F)F)=C2c1ccc(C=C2CN(CCCF)C2)cc1 [Example 153, 8-(5-fluoro-2-(trifluoromethyl)phenyl)-9-(4-((1-(3-fluoropropyl)azetidin-3-ylidene)methyl)phenyl)-6,7-dihydro-5H-benzo[7]annulene-3-carboxylic acid]
  % Degradation At 0.3 μM: 92%
  DC50: 0.5 nM

## Cc1ccc(C(F)(F)F)cc1C1=C(c2ccc(C=C3CN(CCCF)C3)cc2)c2ccc(C(=O)O)cc2CCC1 [Example 136, 9-(4-((1-(3-fluoropropyl)azetidin-3-ylidene)methyl)phenyl)-8-(2-methyl-5-(trifluoromethyl)phenyl)-6,7-dihydro-5H-benzo[7]annulene-3-carboxylic acid]
  % Degradation At 0.3 μM: 92%
  DC50: 0.8 nM

## Cc1ccc(C2=C(c3ccc(C=C4CN(CCCF)C4)cc3)c3ccc(C(=O)O)cc3CCC2)c(Cl)c1 [Example 41, 8-(2-chloro-4-methylphenyl)-9-(4-((1-(3-fluoropropyl)azetidin-3-ylidene)methyl)phenyl)-6,7-dihydro-5H-benzo[7]annulene-3-carboxylic acid]
  % Degradation At 0.3 μM: 92%
  DC50: 0.2 nM

## Cc1cc(C2=C(c3ccc(F)cc3C)CCCc3cc(C(=O)O)ccc32)ccc1C=C1CN(CCCF)C1.Cl [Example 44, 8-(4-fluoro-2-methylphenyl)-9-(4-((1-(3-fluoropropyl)azetidin-3-ylidene)methyl)-3-methylphenyl)-6,7-dihydro-5H-benzo[7]annulene-3-carboxylic acid hydrochloride]
  % Degradation At 0.3 μM: 91%
  DC50: 0.4 nM

## Cc1cc(F)ccc1C1=C(c2cc(F)c(C=C3CN(CCCF)C3)cc2F)c2ccc(C(=O)O)cc2CCC1.Cl [Example 65, 9-(2,5-difluoro-4-((1-(3-fluoropropyl)azetidin-3-ylidene)methyl)phenyl)-8-(4-fluoro-2-methylphenyl)-6,7-dihydro-5H-benzo[7]annulene-3-carboxylic acid hydrochloride]
  % Degradation At 0.3 μM: 95%
  DC50: 0.3 nM

## O=C(O)c1ccc2c(c1)CCCC(c1cccc(F)c1F)=C2c1ccc(C=C2CN(CCCF)C2)cc1 [Example 55, 8-(2,3-difluorophenyl)-9-(4-((1-(3-fluoropropyl)azetidin-3-ylidene)methyl)phenyl)-6,7-dihydro-5H-benzo[7]annulene-3-carboxylic acid]
  % Degradation At 0.3 μM: 94%
  DC50: 1 nM

## Cc1cccc(C2=C(c3ccc(C=C4CN(CCCF)C4)cc3)c3ccc(C(=O)O)cc3CCC2)c1F [Example 48, 8-(2-fluoro-3-methylphenyl)-9-(4-((1-(3-fluoropropyl)azetidin-3-ylidene)methyl)phenyl)-6,7-dihydro-5H-benzo[7]annulene-3-carboxylic acid]
  % Degradation At 0.3 μM: 95%
  DC50: 0.3 nM

## Cc1c(C2=C(c3ccc(Cl)cc3Cl)CCCc3cc(C(=O)O)ccc32)ccc(C=C2CN(CCCF)C2)c1F [Example 63, 8-(2,4-dichlorophenyl)-9-(3-fluoro-4-((1-(3-fluoropropyl)azetidin-3-ylidene)methyl)-2-methylphenyl)-6,7-dihydro-5H-benzo[7]annulene-3-carboxylic acid]
  % Degradation At 0.3 μM: 90%
  DC50: 0.7 nM

## O=C(O)c1ccc2c(c1)CCCC(c1ccc(C(F)(F)F)cc1F)=C2c1ccc(C=C2CN(CCCF)C2)cc1 [Example 49, 8-(2-fluoro-4-(trifluoromethyl)phenyl)-9-(4-((1-(3-fluoropropyl)azetidin-3-ylidene)methyl)phenyl)-6,7-dihydro-5H-benzo[7]annulene-3-carboxylic acid]
  % Degradation At 0.3 μM: 98%
  DC50: 0.3 nM

## Cc1cc(F)c(C2=C(c3ccc(C=C4CN(CCCF)C4)cc3)c3ccc(C(=O)O)cc3CCC2)c(F)c1 [Example 51, 8-(2,6-difluoro-4-methylphenyl)-9-(4-((1-(3-fluoropropyl)azetidin-3-ylidene)methyl)phenyl)-6,7-dihydro-5H-benzo[7]annulene-3-carboxylic acid]
  % Degradation At 0.3 μM: 95%
  DC50: 0.4 nM

## Cc1cc(C2=C(c3ccc(Cl)cc3Cl)CCCc3cc(C(=O)O)ccc32)cc(F)c1C=C1CN(CCCF)C1.Cl [Example 71, 8-(2,4-dichlorophenyl)-9-(3-fluoro-4-((1-(3-fluoropropyl)azetidin-3-ylidene)methyl)-5-methylphenyl)-6,7-dihydro-5H-benzo[7]annulene-3-carboxylic acid hydrochloride]
  % Degradation At 0.3 μM: 101%
  DC50: 0.2 nM

## Cc1c(C2=C(c3ccc(C=C4CN(CCC(F)(F)F)C4)cc3)c3ccc(C(=O)O)cc3CCC2)ccc(F)c1F [Example 112, 8-(3,4-difluoro-2-methylphenyl)-9-(4-((1-(3,3,3-trifluoropropyl)azetidin-3-ylidene)methyl)phenyl)-6,7-dihydro-5H-benzo[7]annulene-3-carboxylic acid]
  % Degradation At 0.3 μM: 100%
  DC50: 27.8 nM
